Laboratory results published in US9758538B2, “Pyrimidine derivatives” (PFIZER INC., priority 2015, dated 2017).

target: truncated PI3Kα (p110α/iSH2 p85α), PI3KA_Act (Homo sapiens (Human), UniProt P42336); assay: PI3Kα biochemical kinase assay, fluorescence polarization format (PI3KA_Act); conditions: 0.5 nM p110α/iSH2 p85, 1 mM ATP, 30 μM PIP2, 15-min preincubation; Morrison equation fit; read-out: PI3KA_Act Ki
Experimental: Enzyme Production for Biochemical Assay: p110α-iSH2 p85α Complex (Full Length p110α and p85α iSH2)(“PI3KA Act”)
Gene encoding p110α subunit was subcloned into polyhedrine promoter while gene encoding p85α niSH2 domains was subcloned into p10 promoter. […] Recombinant baculovirus was generated using Bac-to-Bac protocol (Life Technologies, Carlsbad, Calif.). Large scale expression was conducted in Sf21 (Life Technologies, Carlsbad, Calif.) cells at a multiplicity of infection (“MOI”)=1 for 48 hours. Cells were lyzed in 50 mM Tris pH 8.0, 250 mM NaCl, 5% glycerol, 0.25 mM TCEP, and 20 mM imidazole. The p110α-niSH2 p85α complex was purified from clarified supernatant using Immobilized Metalo Affinity Chromatography (“IMAC”). The protein was eluted from the column using 50 mM Tris pH 8.0, 200 mM NaCl, 0.25 mM TCEP, and 200 mM imidazole. Following elution p110α-niSH2 p85α complex was dialyzed against 4 liters of 50 mM Tris pH 8.0, 200 mM NaCl, 0.25 mM TCEP, and 40 mM imidazole in the presence of PreScission Protease (1:70 molar ratio of Protease to Protein) and TEV protease (1:40 molar ratio protease to protein) for 16 hours at 4° C. The protein was further purified using reverse IMAC to remove cleaved histidine tag and contaminants captured during initial IMAC purification. The mixture of p110α-iSH2 p85α complex and cleaved nSH2 was recovered in reverse IMAC 40 mM imidazole flow through and 60 mM imidazole wash fractions. Those fractions were pulled together and loaded on Superdex 200 26/60 SEC column equilibrated in 25 mM Tris, pH 8.0, 100 mM NaCl, 2% glycerol, and 2 mM TCEP.
The enzymatic reactions were conducted in 50 μL volumes in 96-well plates. […] The reactions were incubated for 30 min at room temperature, stopped with EDTA pH 8 (10 mM final concentration). […] The plate was shaken for 30 minutes and fluorescence polarization values were measured on an LJL Analyst HT plate reader (Molecular Devices, Sunnyvale, Calif.).

Sequence of truncated PI3Kα (p110α/iSH2 p85α), PI3KA_Act (P42336 whole entry, the tested form may be a part): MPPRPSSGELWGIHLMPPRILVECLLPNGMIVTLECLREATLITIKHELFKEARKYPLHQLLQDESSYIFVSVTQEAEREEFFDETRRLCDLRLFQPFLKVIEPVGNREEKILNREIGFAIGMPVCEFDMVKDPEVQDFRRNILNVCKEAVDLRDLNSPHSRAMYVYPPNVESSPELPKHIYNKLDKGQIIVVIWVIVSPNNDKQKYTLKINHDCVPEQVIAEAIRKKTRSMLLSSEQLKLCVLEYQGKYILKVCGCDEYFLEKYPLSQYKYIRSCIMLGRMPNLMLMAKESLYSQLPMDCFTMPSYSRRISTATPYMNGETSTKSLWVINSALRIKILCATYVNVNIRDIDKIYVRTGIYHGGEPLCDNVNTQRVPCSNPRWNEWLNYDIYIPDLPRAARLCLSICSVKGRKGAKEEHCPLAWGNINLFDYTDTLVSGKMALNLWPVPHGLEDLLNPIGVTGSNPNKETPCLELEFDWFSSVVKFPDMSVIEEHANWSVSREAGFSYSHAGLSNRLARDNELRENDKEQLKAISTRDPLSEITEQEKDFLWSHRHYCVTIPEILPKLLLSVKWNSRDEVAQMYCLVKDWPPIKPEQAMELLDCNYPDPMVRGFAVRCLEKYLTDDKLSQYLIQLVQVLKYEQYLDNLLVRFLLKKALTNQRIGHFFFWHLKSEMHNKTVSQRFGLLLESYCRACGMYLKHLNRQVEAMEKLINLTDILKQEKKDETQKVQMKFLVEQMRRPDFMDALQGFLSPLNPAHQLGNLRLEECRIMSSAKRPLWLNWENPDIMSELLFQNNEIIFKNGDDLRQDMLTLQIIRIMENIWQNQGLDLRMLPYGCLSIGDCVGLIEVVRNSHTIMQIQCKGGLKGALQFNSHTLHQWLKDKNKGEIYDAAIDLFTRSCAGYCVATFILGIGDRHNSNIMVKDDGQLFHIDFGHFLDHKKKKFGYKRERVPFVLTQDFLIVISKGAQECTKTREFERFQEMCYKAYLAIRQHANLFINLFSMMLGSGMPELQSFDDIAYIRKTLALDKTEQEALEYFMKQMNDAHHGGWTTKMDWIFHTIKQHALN

Ki | SMILES
1.29 nM | C[C@@]1(Nc2cc(-c3cnc(N)nc3)nc(N3CCOCC3)n2)CCN(S(C)(=O)=O)C1 [Example 12, N˜6˜-[(3R)-3-methyl-1-(methylsulfonyl)pyrrolidin-3-yl]-2-(morpholin-4-yl)-4,5′-bipyrimidine-2′,6-diamine]
0.979 nM | C[C@H]1COCCN1c1nc(N[C@]2(C)CCN(C(=O)OC(C)(C)C)C2)cc(-c2cnc(N)nc2)n1 [Example 15, tert-butyl (3R)-3-({2′-amino-2-[(3S)-3-methylmorpholin-4-yl]-4,5′-bipyrimidin-6-yl}amino)-3-methylpyrrolidine-1-carboxylate]
0.158 nM | C[C@H]1COCCN1c1nc(N[C@@]2(C)CCN(C(=O)OC(C)(C)C)C2)cc(-c2cnc(N)nc2)n1 [Example 19, tert-butyl (3S)-3-({2′-amino-2-[(3S)-3-methylmorpholin-4-yl]-4,5′-bipyrimidin-6-yl}amino)-3-methylpyrrolidine-1-carboxylate]
0.049 nM | CN(c1cc(-c2cnc(N)nc2)nc(N2CCOCC2)n1)C1(CO)CCN(C(=O)OC(C)(C)C)C1 (stereo not shown) [Example 25, tert-butyl 3-{[2′-amino-2-(morpholin-4-yl)-4,5′-bipyrimidin-6-yl](methyl)amino}-3-(hydroxymethyl)pyrrolidine-1-carboxylate]
0.201 nM | CCC1(Nc2cc(-c3cnc(N)nc3)nc(N3CCOCC3)n2)CCN(C(=O)OC(C)(C)C)C1 (stereo not shown) [Example 28, tert-butyl 3-{[2′-amino-2-(morpholin-4-yl)-4,5′-bipyrimidin-6-yl]amino}-3-ethylpyrrolidine-1-carboxylate]
5.88 nM | Nc1ncc(-c2cc(N[C@@]3(CO)CCNC3)nc(N3CCOCC3)n2)cn1 [Example 29, [(3S)-3-{[2′-amino-2-(morpholin-4-yl)-4,5′-bipyrimidin-6-yl]amino}pyrrolidin-3-yl]methanol]
2.42 nM | Nc1ncc(-c2cc(N[C@]3(CO)CCNC3)nc(N3CCOCC3)n2)cn1 [Example 30, [(3R)-3-{[2′-amino-2-(morpholin-4-yl)-4,5′-bipyrimidin-6-yl]amino}pyrrolidin-3-yl]methanol]
2.13 nM | CC(=O)N1CC[C@@](CO)(Nc2cc(-c3cnc(N)nc3)nc(N3CCOCC3)n2)C1 [Example 31, 1-[(3R)-3-{[2′-amino-2-(morpholin-4-yl)-4,5′-bipyrimidin-6-yl]amino}-3-(hydroxymethyl)pyrrolidin-1-yl]ethanone]
0.771 nM | CC(=O)N1CC[C@](CO)(Nc2cc(-c3cnc(N)nc3)nc(N3CCOCC3)n2)C1 [Example 32, 1-[(3S)-3-{[2′-amino-2-(morpholin-4-yl)-4,5′-bipyrimidin-6-yl]amino}-3-(hydroxymethyl)pyrrolidin-1-yl]ethanone]
< 0.018 nM | C[C@H]1COCCN1c1nc(N[C@@]2(CO)CCN(C(=O)OC(C)(C)C)C2)cc(-c2cnc(N)nc2)n1 [Example 36, tert-butyl (3S)-3-({2′-amino-2-[(3S)-3-methylmorpholin-4-yl]-4,5′-bipyrimidin-6-yl}amino)-3-(hydroxymethyl)pyrrolidine-1-carboxylate]
0.725 nM | CC[C@@]1(Nc2cc(-c3cnc(N)nc3)nc(N3CCOCC3)n2)CCN(C(=O)OC(C)(C)C)C1 [Example 37, tert-butyl (3R)-3-{[2′-amino-2-(morpholin-4-yl)-4,5′-bipyrimidin-6-yl]amino}-3-ethylpyrrolidine-1-carboxylate]

SMILES | Ki
CS(=O)(=O)N1CC[C@](CO)(Nc2cc(-c3cnc(N)nc3)nc(N3CCOCC3)n2)C1 [Example 33, [(3S)-3-{[2′-amino-2-(morpholin-4-yl)-4,5′-bipyrimidin-6-yl]amino}-1-(methylsulfonyl)pyrrolidin-3-yl]methanol] | 0.3 nM
COC(=O)N1CC[C@](CO)(Nc2cc(-c3cnc(N)nc3)nc(N3CCOCC3)n2)C1 [Example 34, methyl (3S)-3-{[2′-amino-2-(morpholin-4-yl)-4,5′-bipyrimidin-6-yl]amino}-3-(hydroxymethyl)pyrrolidine-1-carboxylate] | 0.019 nM
